Source: patent US20230320956A1, “DIARYLALKANE COMPOUNDS AND COMPOSITIONS FOR USE WITH SKIN AGING AND METHODS OF PRODUCTION THEREOF” (Unigen, Inc., priority 2022, published 2023)

Test system: keratinocytes (Hacat cell line)
Test: Global gene expression (RNA-seq) in treated keratinocytes
Type: cell-based, human
Conditions: for Fold change (gene expression): 40 μM vs untreated; for Fold Enrichment / Number of Genes Differentially Expressed: 40 μM
Protocol: To determine specific expression changes dimethoxytolyl propylresorcinol exerted on human keratinocyte aging genes, keratinocytes (Hacat cell line) were treated dimethoxytolyl propylresorcinol at 40 μM and gene expression was analyzed by RNA-seq. Differential gene expression was compared to untreated keratinocytes and cells treated with 40 μM Retinol A to find genes involved in aging. […] Retinol was chosen as a positive control because retinoids have been described as having effective anti-aging and anti-wrinkle effects (Zasada M, 2019). We directly compared the effects of Retinol on keratinocytes with the same concentration of dimethoxytolyl propylresorcinol.

[1] = Gene Cluster Activation of MAPK activity
[2] = Gene Cluster Calcium ion binding
[3] = Gene Cluster Cell-cell signaling
[4] = Gene Cluster Cellular response to lipopolysaccharide
[5] = Gene Cluster Cellular response to retinoic acid
[6] = Gene Cluster Epidermis development
[7] = Gene Cluster Epithelial cell differentiation
[8] = Gene Cluster Extracellular exosome
[9] = Gene Cluster Extracellular matrix organization
[10] = Gene Cluster Extracellular region
[11] = Gene Cluster Extracellular space
[12] = Gene Cluster Growth factor activity
[13] = Gene Cluster Inflammatory response
[14] = Gene Cluster Intermediate filament cytoskeleton organization
[15] = Gene Cluster Negative regulation of ERK1 and ERK2 cascade
[16] = Gene Cluster Negative regulation of cell proliferation
[17] = Gene Cluster Negative regulation of endopeptidase activity
[18] = Gene Cluster Neutrophil chemotaxis
[19] = Gene Cluster O-glycan processing
[20] = Gene Cluster Osteoblast differentiation
[21] = Gene Cluster Positive regulation of angiogenesis
[22] = Gene Cluster Positive regulation of cell migration
[23] = Gene Cluster Positive regulation of cell proliferation
[24] = Gene Cluster Positive regulation of gene expression
[25] = Gene Cluster Positive regulation of smooth muscle cell proliferation
[26] = Gene Cluster Proteinaceous extracellular matrix
[27] = Gene Cluster Transforming growth factor beta receptor binding

With `CC1=C(/C=C/C(C)=C/C=C/C(C)=C/CO)C(C)(C)CCC1` [Retinol, reference compound] the “Fold change (gene expression)” value (AHR - Aryl hydrocarbon receptor, Oxidative stress) was “No effect”, the “Fold change (gene expression)” value (ANGPTL4 - Angiopoietin-like 4, Negative regulation of growth/Angiogenesis) was 2.77 fold and the “Fold change (gene expression)” value (ANOS1 - Anosmin 1, ECM/Nerve adhesion) was 0.55 fold. For the same compound, the “Fold change (gene expression)” value (BMP4 - Bone morphogenetic protein 4, Growth) was 0.51 fold, the “Fold change (gene expression)” value (C3orf33 - Chromosome 3 open reading frame 33, Negative regulation of growth) was 2.24 fold and the “Fold change (gene expression)” value (CD1D - CD1d molecule, ECM) was 0.32 fold. For the same compound, the “Fold change (gene expression)” value (CDK5R1 - Cyclin-dependent kinase 5 activator 1, Growth/Skin barrier) was “No effect”, the “Fold change (gene expression)” value (CEACAM1 - CEA cell adhesion molecule 1, Cell adhesion) was 3.00 fold and the “Fold change (gene expression)” value (COL1A1 - Collagen type 1, ECM) was “No effect”. The “Fold change (gene expression)” value (COL5A1 - Collagen type V alpha 1 chain, ECM) was 0.27 fold, the “Fold change (gene expression)” value (CRISPLD2 - Cysteine-rich secretory protein LCCL domain-containing 2, ECM) was 1.98 fold and the “Fold change (gene expression)” value (CXCL3 - C-X-C motif chemokine ligand 3, Immune signaling) was 2.60 fold. For the same compound, the “Fold change (gene expression)” value (CYP1A1 - Cytochrome P450 family 1 subfamily A member 1, Drug metabolism) was 2.30 fold, the “Fold change (gene expression)” value (ECM1 - Extracellular matrix protein 1, ECM) was “No effect” and the “Fold change (gene expression)” value (EPHA4 - Ephrin type-A receptor 4, Cell adhesion, cell communication) was 0.55 fold. The “Fold change (gene expression)” value (EREG - Epiregulin, Growth) was “No effect”, the “Fold change (gene expression)” value (FABP5 - Fatty acid binding protein 5, Skin barrier) was “No effect” and the “Fold change (gene expression)” value (FGF1 - Fibroblast growth factor 1, Growth) was 0.45 fold. The “Fold change (gene expression)” value (FGF11 - Fibroblast growth factor 11, Growth) was 0.50 fold, the “Fold change (gene expression)” value (FLRT2 - Fibronectin leucine-rich transmembrane protein 2, ECM) was 0.58 fold and the “Fold Enrichment” value [1] was 3.15 fold. The “Number of Genes Differentially Expressed” value [1] was 7, the “Fold Enrichment” value (Gene Cluster Angiogenesis) was 2.37 fold and the “Number of Genes Differentially Expressed” value (Gene Cluster Angiogenesis) was 11. The “Fold Enrichment” value [2] was 2.04 fold, the “Number of Genes Differentially Expressed” value [2] was 30 and the “Fold Enrichment” value (Gene Cluster Cell development) was 4.81 fold. The “Number of Genes Differentially Expressed” value (Gene Cluster Cell development) was 4, the “Fold Enrichment” value (Gene Cluster Cell surface) was 1.84 fold and the “Number of Genes Differentially Expressed” value (Gene Cluster Cell surface) was 20. For the same compound, the “Fold Enrichment” value [3] was 2.46 fold, the “Number of Genes Differentially Expressed” value [3] was 13 and the “Fold Enrichment” value [4] was 4.26 fold. The “Number of Genes Differentially Expressed” value [4] was 10, the “Fold Enrichment” value [5] was 4.12 fold and the “Number of Genes Differentially Expressed” value [5] was 6. The “Fold Enrichment” value [6] was 4.53 fold, the “Number of Genes Differentially Expressed” value [6] was 8 and the “Fold Enrichment” value [7] was 4.81 fold. The “Number of Genes Differentially Expressed” value [7] was 7, the “Fold Enrichment” value [8] was 1.47 fold and the “Number of Genes Differentially Expressed” value [8] was 83. The “Fold Enrichment” value [9] was 3.19 fold, the “Number of Genes Differentially Expressed” value [9] was 13 and the “Fold Enrichment” value [10] was 1.73 fold. The “Number of Genes Differentially Expressed” value [10] was 56, the “Fold Enrichment” value [11] was 2.48 fold and the “Number of Genes Differentially Expressed” value [11] was 67. The “Fold Enrichment” value [12] was 3.00 fold, the “Number of Genes Differentially Expressed” value [12] was 10 and the “Fold Enrichment” value (Gene Cluster Growth) was 6.87 fold. The “Number of Genes Differentially Expressed” value (Gene Cluster Growth) was 4, the “Fold Enrichment” value (Gene Cluster Heparin binding) was 4.86 fold and the “Number of Genes Differentially Expressed” value (Gene Cluster Heparin binding) was 16. The “Fold Enrichment” value [13] was 2.54 fold, the “Number of Genes Differentially Expressed” value [13] was 20 and the “Fold Enrichment” value [14] was 9.62 fold. The “Number of Genes Differentially Expressed” value [14] was 3, the “Fold Enrichment” value [15] was 5.81 fold and the “Number of Genes Differentially Expressed” value [15] was 7. For the same compound, the “Fold Enrichment” value [16] was 2.43 fold, the “Number of Genes Differentially Expressed” value [16] was 20 and the “Fold Enrichment” value [17] was 2.78 fold. The “Number of Genes Differentially Expressed” value [17] was 7, the “Fold Enrichment” value [18] was 3.65 fold and the “Number of Genes Differentially Expressed” value [18] was 5. The “Fold Enrichment” value [19] was 4.00 fold, the “Number of Genes Differentially Expressed” value [19] was 5 and the “Fold Enrichment” value [20] was 3.24 fold. For the same compound, the “Number of Genes Differentially Expressed” value [20] was 7, the “Fold Enrichment” value [21] was 3.35 fold and the “Number of Genes Differentially Expressed” value [21] was 8. For the same compound, the “Fold Enrichment” value [22] was 3.40 fold, the “Number of Genes Differentially Expressed” value [22] was 13 and the “Fold Enrichment” value [23] was 1.86 fold. The “Number of Genes Differentially Expressed” value [23] was 18, the “Fold Enrichment” value [24] was 2.20 fold and the “Number of Genes Differentially Expressed” value [24] was 12. For the same compound, the “Fold Enrichment” value [25] was 4.81 fold, the “Number of Genes Differentially Expressed” value [25] was 6 and the “Fold Enrichment” value [26] was 4.27 fold. For the same compound, the “Number of Genes Differentially Expressed” value [26] was 23, the “Fold Enrichment” value (Gene Cluster Response to drug) was 2.37 fold and the “Number of Genes Differentially Expressed” value (Gene Cluster Response to drug) was 15. For the same compound, the “Fold Enrichment” value [27] was 5.79 fold, the “Number of Genes Differentially Expressed” value [27] was 5 and the “Fold change (gene expression)” value (HAS2 - hyaluronan synthase 2, ECM) was “No effect”. For the same compound, the “Fold change (gene expression)” value (HAS3 - hyaluronan synthase 3, ECM) was “No effect”, the “Fold change (gene expression)” value (HBEGF - Heparin-binding EGF-like growth factor, Growth) was “No effect” and the “Fold change (gene expression)” value (HIF1A - Hypoxia-inducible factor 1 subunit alpha, Oxidative stress) was “No effect”. The “Fold change (gene expression)” value (HMOX1 - Heme oxygenase 1, Oxidative stress) was “No effect”, the “Fold change (gene expression)” value (HS3ST1 - Heparan sulfate-glucosamine 3-sulfotransferase 1, ECM) was 1.48 fold and the “Fold change (gene expression)” value (IL1A - Interleukin 1 alpha, Cytokine signaling) was “No effect”. The “Fold change (gene expression)” value (IL1RL1 - Interleukin 1 receptor-like 1, Immune signaling) was 3.13 fold, the “Fold change (gene expression)” value (ITGA6 - Integrin subunit alpha 6, Cell adhesion) was 0.59 fold and the “Fold change (gene expression)” value (ITGBL1 - Integrin subunit beta-like 1, Cell adhesion) was “No effect”. For the same compound, the “Fold change (gene expression)” value (KIF13A - Kinesin family member 13A, Cytoskeleton/secretion) was 0.68 fold, the “Fold change (gene expression)” value (LAMA3 - Laminin subunit alpha 3, ECM) was “No effect” and the “Fold change (gene expression)” value (LAMC2 - Laminin subunit gamma 2, ECM) was 0.71 fold. The “Fold change (gene expression)” value (NGF - Nerve growth factor, Growth) was “No effect”, the “Fold change (gene expression)” value (NID2 - Nidogen 2 precursor, ECM) was 0.79 fold and the “Fold change (gene expression)” value (OCLN - Occludin, Skin barrier) was “No effect”. For the same compound, the “Fold change (gene expression)” value (OLFM4 - Olfactomedin 4, ECM) was 0.28 fold, the “Fold change (gene expression)” value (PARP15 - Poly (ADP-Ribose) polymerase family member 15, DNA damage repair/transcription regulation) was “No effect” and the “Fold change (gene expression)” value (PI3 - Peptidase inhibitor 3, elastase inhibitor, Elastin genes) was “No effect”. For the same compound, the “Fold change (gene expression)” value (PSAPL1 - Prosaposin-like 1, ECM) was 0.32 fold, the “Fold change (gene expression)” value (PSG5 - Pregnancy specific beta-1-glycoprotein 5, ECM) was 0.37 fold and the “Fold change (gene expression)” value (PTPRR - Protein tyrosine phosphatase receptor type R, Negative regulation of growth) was 2.31 fold. For the same compound, the “Fold change (gene expression)” value (RAPGEF3 - Rap guanine nucleotide exchange factor 3, Plasma membrane fusion/cytoskeleton) was 1.81 fold, the “Fold change (gene expression)” value (SELE - E-Selectin, Cell adhesion) was “No effect” and the “Fold change (gene expression)” value (SEMA3D - Semaphorin 3D, ECM/Nerve growth) was 0.50 fold. The “Fold change (gene expression)” value (SERPINB2 - Serpin family B member 2, Skin barrier) was 0.70 fold, the “Fold change (gene expression)” value (SERPINB4 - Serpin family B member 4, Skin barrier) was “No effect” and the “Fold change (gene expression)” value (SIRT1 - Sirtuin 1, Transcription regulation) was “No effect”. For the same compound, the “Fold change (gene expression)” value (SIRT7 - Sirtuin 7, Transcription regulation) was “No effect”, the “Fold change (gene expression)” value (SOD2 - Superoxide dismutase 2, Oxidative stress) was “No effect” and the “Fold change (gene expression)” value (TFP12 - Tissue factor pathway inhibitor 2, ECM) was 2.46 fold. For the same compound, the “Fold change (gene expression)” value (TGFB1 - Transforming growth factor beta 1, TGF-β signaling) was “No effect”, the “Fold change (gene expression)” value (TLR4 - Toll-like receptor 4, Immune signaling) was 2.67 fold and the “Fold change (gene expression)” value (TNC - Tenascin C, ECM/Nerve growth) was 0.14 fold. The “Fold change (gene expression)” value (TP73 - Tumor protein P73, Growth) was 0.38 fold, the “Fold change (gene expression)” value (TXNRD1 - Thioredoxin reductase 1, Oxidative stress) was 1.45 fold and the “Fold change (gene expression)” value (UGCG - UDP-glucose ceramide glucosyltransferase, Lipid metabolism and transport) was 1.24 fold. For the same compound, the “Fold change (gene expression)” value (VIT - Vitrin, ECM) was 0.14 fold.
